Test results taken from patent publication US20050203191A1, “1-Aminocyclohexane derivatives for the treatment of agitation and other behavioral disorders, especially those associated with alzheimer's disease” (priority 2004, published 2005).

What was measured:
[1] = test system: moderate to severe Alzheimer's patients treated with ongoing donepezil therapy; experiment: MD-02 (Therapy Example 2): 24-week double-blind placebo-controlled trial of memantine added to ongoing donepezil; format: in vivo, human; conditions: MD-02, on donepezil, week 24, ITT LOCF
Method: A 24 week, double-blind, placebo-controlled trial was conducted in moderate to severe Alzheimer's patients (N=404) treated with ongoing donepezil therapy and randomized to memantine or placebo. Behavioral symptoms were assessed using the NPI administered at baseline, Week 12 and the final visit (Week 24). The trial already had established benefits of memantine on functional, cognitive, and global measures. The statistical analysis was based on the ITT population using the last observation carried forward (LOCF) and observed case (OC) approaches.
This study enrolled four hundred and four patients diagnosed with probable AD according to the National Institute of Neurological and Communicative Disorders and Stroke—Alzheimer's Disease and Related Disorders Association (NINCDS-ADRDA) criteria with moderate to severe stages of illness. Inclusion criteria were as follows: Mini-Mental State Examination (MMSE) score of 5-14 at screening and at baseline; minimum age of 50 years; a recent MRI or CT scan consistent with a diagnosis of probable AD; on AChEI therapy, which was defined by the protocol to be donepezil, for more than 6 months prior to entrance into the trial and at a stable dose (5-10 mg/day) for at least 3 months prior to entrance in the trial; a knowledgeable and reliable caregiver to accompany the patient to research visits and oversee the administration of the investigational agent during the trial; residence in the community; ambulatory or ambulatory-aided (i.e. walker or cane) ability; and stable medical condition.
Patients were excluded for clinically significant reasons; B12 or folate deficiency; active pulmonary, gastrointestinal, renal, hepatic, endocrine, or cardiovascular disease; other psychiatric or central nervous system disorders; CT or MRI evidence of clinically significant central nervous system disorders other than probable AD; dementia complicated by other organic disease; or a modified Hachinski Ischemia Score30 greater than 4 at screening.
This was a prospective, randomized, placebo-controlled, parallel-arm, fixed-dose trial in which participants were assigned to double-blind treatment for 24 weeks with a 1-2 week single-blind, placebo lead-in phase prior to randomization. The initial dose of memantine was 5 mg/day with escalation to 20 mg/day over the first 3 weeks of double-blind treatment. All patients were to maintain their protocol-defined AChEI therapy at entry dose for the duration of the study. From week 3 to the end of week 8 of double-blind treatment, transient dosage adjustments for memantine treatment were permitted for patients experiencing dose-limiting adverse events. All memantine-treated patients were required to receive the target dose of 20 mg/day by the end of week 8, and patients not tolerating the target dose at that time were discontinued.
Patients were randomly allocated in permuted blocks of four to one of the two treatment. Blinded study medication was supplied to each study site for dispensation in blister packs at each visit. No unblinding occurred during the trial. Compliance monitoring was conducted via pill counts, and over 95% of both treatment groups had >75% compliance (95% for the placebo/AChEI treatment group and 96.5% for the memantine/AChEI treatment group).
Cognitive, functional, global, and behavioral outcome measures were obtained at screening, baseline, and at the end of weeks 4, 8, 12, 18, and 24. […] The efficacy parameters were the change from baseline on the SIB, a modified ADCS-ADL Inventory score at week 24, and the NPI. The 12-item version of the NPI was used here, with a total score ranging from 0-144. Higher scores reflect greater symptomatology. The NPI was assessed at baseline, at the end of week 12, and at the final visit.
Three populations were considered in the statistical analyses. […]

[2] = humans; cited from earlier work
[3] = NPI total score ≧=75% (top quartile)
[4] = antipsychotics usage “YES” (N = n)
[5] = antipsychotics usage “YES” (N = y)
[6] = baseline NPI agitation score <4
[7] = baseline NPI agitation score ≧=4

## CC12CC3CC(C)(C1)CC(N)(C3)C2 [memantine, 1-amino-3,5-dimethyl adamantane]
[1]; NPI total score <75%
  ADCS-ADL (change) LS Mean Diff., MEM v. PLA: 1.17
  ADCS-ADL (change) mean: −1.6
  CIBIC-PLUS Raw Mean Diff., MEM v. PLA: −0.2
  CIBIC-PLUS mean: 4.4
  SIB (change) LS Mean Diff., MEM v. PLA: 2.5
  SIB (change) mean: 0.9
[1]; [3]
  ADCS-ADL (change) LS Mean Diff., MEM v. PLA: 1.73
  ADCS-ADL (change) mean: −2.6
  CIBIC-PLUS Raw Mean Diff., MEM v. PLA: −0.3
  CIBIC-PLUS mean: 4.4
  SIB (change) LS Mean Diff., MEM v. PLA: 6.1
  SIB (change) mean: −1.4
[1]; NPI total score ≧=75% (top quartile), listed as MEM
  ADCS-ADL (change) LS Mean Diff., MEM v. PLA: −1.73
[1]; [4]
  ADCS-ADL (change) LS Mean Diff., MEM v. PLA: 0.9
  ADCS-ADL (change) mean: −1.8
  CIBIC-PLUS Raw Mean Diff., MEM v. PLA: −0.08
  CIBIC-PLUS mean: 4.45
  SIB (change) LS Mean Diff., MEM v. PLA: 1.7
  SIB (change) mean: 0.3
[1]; [5]
  ADCS-ADL (change) LS Mean Diff., MEM v. PLA: 3.6
  ADCS-ADL (change) mean: −2.1
  CIBIC-PLUS Raw Mean Diff., MEM v. PLA: −1.18
  CIBIC-PLUS mean: 4.17
  SIB (change) LS Mean Diff., MEM v. PLA: 12.4
  SIB (change) mean: 5.2
[1]; [6]
  ADCS-ADL (change) LS Mean Diff., MEM v. PLA: 1.2
  ADCS-ADL (change) mean: −1.8
  CIBIC-PLUS Raw Mean Diff., MEM v. PLA: −0.3
  CIBIC-PLUS mean: 4.4
  SIB (change) LS Mean Diff., MEM v. PLA: 3.6
  SIB (change) mean: 1.0
[1]; baseline NPI agitation score <4, listed as MEM
  SIB (change) LS Mean Diff., MEM v. PLA: 3.4
[1]; [7]
  ADCS-ADL (change) LS Mean Diff., MEM v. PLA: 2.1
  ADCS-ADL (change) mean: −2.0
  CIBIC-PLUS Raw Mean Diff., MEM v. PLA: −0.1
  SIB (change) LS Mean Diff., MEM v. PLA: 3.8
  SIB (change) mean: 1.1
[1]; overall
  ADCS-ADL (change) LS mean: −2.00
  CIBIC-PLUS LS mean: 4.41
  SIB (change) LS mean: 0.90
[1]; overall, listed as MEM
  ADCS-ADL (change) LS Mean Diff., MEM v. PLA: −1.40
  CIBIC-PLUS Raw Mean Diff., MEM v. PLA: −0.25
  SIB (change) LS Mean Diff., MEM v. PLA: −3.40
[2]
  therapeutically effective circulating concentration: 1 µM
